Legend:
Experiment in all cases: relative viability (nuclei count vs DMSO), 5 days (fraction); higher = more cells survive
A-427 = system: A-427
Summary of the method: (§1)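 The day after seeding in 1536-well plates, lung cancer cell lines were treated by pin tool with a single drug, or with a fixed anchor-drug dose together with five library-drug doses (not always all listed) in √10 steps. After 5 days, a combined fix-and-stain solution (final 0.05% Triton X-100, 1% formaldehyde, 1 ug/ml Hoechst) was added. Nuclei counted on 4× images gave relative viability as treated counts over vehicle counts, reported as the median of duplicate plates.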

ABC-1 = system: ABC-1
Summary of the method: as §1

EMC-BAC-2 = system: EMC-BAC-2
Summary of the method: as §1

HARA = system: HARA
Summary of the method: as §1

HOP-62 = system: HOP-62
Summary of the method: as §1

LK-2 = system: LK-2
Summary of the method: as §1

LXF-289 = system: LXF-289
Summary of the method: as §1

NCI-H1792 = system: NCI-H1792
Summary of the method: as §1

NCI-H1944 = system: NCI-H1944
Summary of the method: as §1

NCI-H1993 = system: NCI-H1993
Summary of the method: as §1

NCI-H2009 = system: NCI-H2009
Summary of the method: as §1

NCI-H2170 = system: NCI-H2170
Summary of the method: as §1

NCI-H2228 = system: NCI-H2228
Summary of the method: as §1

NCI-H3122 = system: NCI-H3122
Summary of the method: as §1

NCI-H322M = system: NCI-H322M
Summary of the method: as §1

NCI-H522 = system: NCI-H522
Summary of the method: as §1

NCI-H596 = system: NCI-H596
Summary of the method: as §1

NCI-H727 = system: NCI-H727
Summary of the method: as §1

PC-3 [JPC-3] = system: PC-3 [JPC-3]
Summary of the method: as §1

SK-MES-1 = system: SK-MES-1
Summary of the method: as §1

SW 1573 = system: SW 1573
Summary of the method: as §1

SW 900 = system: SW 900
Summary of the method: as §1

With `COc1cc2nccc(Oc3ccc(NC(=O)Nc4cc(C)on4)c(Cl)c3)c2cc1OC` [Tivozanib] + O=C(c1cc(Cc2n[nH]c(=O)c3ccccc23)ccc1F)N1CCN(C(=O)C2CC2)CC1 [Olaparib] (partner 8 µM) the relative viability (A-427; first compound 0.005 µM) was 0.667, the relative viability (A-427; first compound 0.01581 µM) was 0.747 and the relative viability (A-427; first compound 0.05 µM) was 0.774. It also gave a relative viability (A-427; first compound 0.1581 µM) of 0.709, a relative viability (A-427; first compound 0.5 µM) of 0.737 and a relative viability (ABC-1; first compound 0.005 µM) of 0.815. The relative viability (ABC-1; first compound 0.01581 µM) was 0.837, the relative viability (ABC-1; first compound 0.05 µM) was 0.579 and the relative viability (ABC-1; first compound 0.1581 µM) was 1.02. The relative viability (ABC-1; first compound 0.5 µM) was 0.67, the relative viability (EMC-BAC-2; first compound 0.005 µM) was 0.492 and the relative viability (EMC-BAC-2; first compound 0.01581 µM) was 0.543. The relative viability (EMC-BAC-2; first compound 0.05 µM) was 0.469, the relative viability (EMC-BAC-2; first compound 0.1581 µM) was 0.472 and the relative viability (EMC-BAC-2; first compound 0.5 µM) was 0.358. The relative viability (HARA; first compound 0.005 µM) was 0.606, the relative viability (HARA; first compound 0.01581 µM) was 1.07 and the relative viability (HARA; first compound 0.05 µM) was 0.763. For the same molecule, the relative viability (HARA; first compound 0.1581 µM) was 1.15, the relative viability (HARA; first compound 0.5 µM) was 0.893 and the relative viability (HOP-62; first compound 0.005 µM) was 0.472. The relative viability (HOP-62; first compound 0.01581 µM) was 0.405, the relative viability (HOP-62; first compound 0.05 µM) was 0.324 and the relative viability (HOP-62; first compound 0.1581 µM) was 0.537. The relative viability (HOP-62; first compound 0.5 µM) was 0.37, the relative viability (LK-2; first compound 0.005 µM) was 0.67 and the relative viability (LK-2; first compound 0.01581 µM) was 0.759. It also gave a relative viability (LK-2; first compound 0.05 µM) of 0.691, a relative viability (LK-2; first compound 0.1581 µM) of 0.573 and a relative viability (LK-2; first compound 0.5 µM) of 0.613. The relative viability (LXF-289; first compound 0.005 µM) was 0.984, the relative viability (LXF-289; first compound 0.01581 µM) was 0.994 and the relative viability (LXF-289; first compound 0.05 µM) was 1.09. For the same molecule, the relative viability (LXF-289; first compound 0.1581 µM) was 1.13, the relative viability (LXF-289; first compound 0.5 µM) was 0.99 and the relative viability (NCI-H1792; first compound 0.005 µM) was 0.313. For the same molecule, the relative viability (NCI-H1792; first compound 0.01581 µM) was 0.46, the relative viability (NCI-H1792; first compound 0.05 µM) was 0.516 and the relative viability (NCI-H1792; first compound 0.5 µM) was 0.294. The relative viability (NCI-H1944; first compound 0.005 µM) was 0.331, the relative viability (NCI-H1944; first compound 0.01581 µM) was 0.395 and the relative viability (NCI-H1944; first compound 0.05 µM) was 0.416. For the same molecule, the relative viability (NCI-H1944; first compound 0.1581 µM) was 0.406, the relative viability (NCI-H1944; first compound 0.5 µM) was 0.376 and the relative viability (NCI-H1993; first compound 0.005 µM) was 0.849. It also gave a relative viability (NCI-H1993; first compound 0.01581 µM) of 1.03, a relative viability (NCI-H1993; first compound 0.05 µM) of 0.988 and a relative viability (NCI-H1993; first compound 0.1581 µM) of 0.692. The relative viability (NCI-H1993; first compound 0.5 µM) was 1.1, the relative viability (NCI-H2009; first compound 0.005 µM) was 0.655 and the relative viability (NCI-H2009; first compound 0.01581 µM) was 0.703. The relative viability (NCI-H2009; first compound 0.05 µM) was 0.751, the relative viability (NCI-H2009; first compound 0.1581 µM) was 0.714 and the relative viability (NCI-H2009; first compound 0.5 µM) was 0.542. For the same molecule, the relative viability (NCI-H2170; first compound 0.005 µM) was 0.484, the relative viability (NCI-H2170; first compound 0.01581 µM) was 0.596 and the relative viability (NCI-H2170; first compound 0.05 µM) was 0.642. For the same molecule, the relative viability (NCI-H2170; first compound 0.5 µM) was 0.523, the relative viability (NCI-H2228; first compound 0.005 µM) was 0.669 and the relative viability (NCI-H2228; first compound 0.01581 µM) was 0.956. It also gave a relative viability (NCI-H2228; first compound 0.05 µM) of 0.771, a relative viability (NCI-H2228; first compound 0.1581 µM) of 0.644 and a relative viability (NCI-H2228; first compound 0.5 µM) of 0.723. The relative viability (NCI-H3122; first compound 0.005 µM) was 0.616, the relative viability (NCI-H3122; first compound 0.01581 µM) was 0.641 and the relative viability (NCI-H3122; first compound 0.05 µM) was 0.768. It also gave a relative viability (NCI-H3122; first compound 0.1581 µM) of 0.684, a relative viability (NCI-H3122; first compound 0.5 µM) of 0.606 and a relative viability (NCI-H322M; first compound 0.005 µM) of 0.656. The relative viability (NCI-H322M; first compound 0.01581 µM) was 0.811, the relative viability (NCI-H322M; first compound 0.05 µM) was 0.755 and the relative viability (NCI-H322M; first compound 0.1581 µM) was 0.72. For the same molecule, the relative viability (NCI-H322M; first compound 0.5 µM) was 0.714, the relative viability (NCI-H522; first compound 0.005 µM) was 0.627 and the relative viability (NCI-H522; first compound 0.01581 µM) was 0.635. It also gave a relative viability (NCI-H522; first compound 0.05 µM) of 0.651, a relative viability (NCI-H522; first compound 0.1581 µM) of 0.591 and a relative viability (NCI-H522; first compound 0.5 µM) of 0.512. For the same molecule, the relative viability (NCI-H596; first compound 0.005 µM) was 0.621, the relative viability (NCI-H596; first compound 0.01581 µM) was 0.696 and the relative viability (NCI-H596; first compound 0.05 µM) was 0.773. For the same molecule, the relative viability (NCI-H596; first compound 0.5 µM) was 0.706, the relative viability (NCI-H727; first compound 0.005 µM) was 0.678 and the relative viability (NCI-H727; first compound 0.01581 µM) was 0.787. It also gave a relative viability (NCI-H727; first compound 0.05 µM) of 0.823, a relative viability (NCI-H727; first compound 0.1581 µM) of 0.786 and a relative viability (NCI-H727; first compound 0.5 µM) of 0.74. It also gave a relative viability (PC-3 [JPC-3]; first compound 0.01581 µM) of 1.22, a relative viability (PC-3 [JPC-3]; first compound 0.05 µM) of 1.11 and a relative viability (PC-3 [JPC-3]; first compound 0.1581 µM) of 1.15. It also gave a relative viability (PC-3 [JPC-3]; first compound 0.5 µM) of 1.09, a relative viability (SK-MES-1; first compound 0.005 µM) of 0.661 and a relative viability (SK-MES-1; first compound 0.01581 µM) of 0.623. The relative viability (SK-MES-1; first compound 0.05 µM) was 0.772, the relative viability (SK-MES-1; first compound 0.1581 µM) was 0.62 and the relative viability (SK-MES-1; first compound 0.5 µM) was 0.583. For the same molecule, the relative viability (SW 1573; first compound 0.005 µM) was 0.443, the relative viability (SW 1573; first compound 0.01581 µM) was 0.416 and the relative viability (SW 1573; first compound 0.05 µM) was 0.434. It also gave a relative viability (SW 1573; first compound 0.1581 µM) of 0.506, a relative viability (SW 1573; first compound 0.5 µM) of 0.446 and a relative viability (SW 900; first compound 0.005 µM) of 0.779. The relative viability (SW 900; first compound 0.01581 µM) was 0.817, the relative viability (SW 900; first compound 0.05 µM) was 0.776 and the relative viability (SW 900; first compound 0.5 µM) was 0.855.

Reference: the supplement of paper PMC10307832
